The record followed here is ChEMBL document CHEMBL1201862, “PubChem BioAssay data set” (2004).

The source made the active and inactive calls.

The target in one data set is Cytochrome P450 2C19 (Homo sapiens, UniProt P33261). The data set can be described thus: Cytochrome panel assay with activity outcomes. Panel member name: p450-cyp2c19 Compounds with AC50 equal or less than 10 uM are considered active. Format: functional.
Chain of Cytochrome P450 2C19 (P33261 whole entry): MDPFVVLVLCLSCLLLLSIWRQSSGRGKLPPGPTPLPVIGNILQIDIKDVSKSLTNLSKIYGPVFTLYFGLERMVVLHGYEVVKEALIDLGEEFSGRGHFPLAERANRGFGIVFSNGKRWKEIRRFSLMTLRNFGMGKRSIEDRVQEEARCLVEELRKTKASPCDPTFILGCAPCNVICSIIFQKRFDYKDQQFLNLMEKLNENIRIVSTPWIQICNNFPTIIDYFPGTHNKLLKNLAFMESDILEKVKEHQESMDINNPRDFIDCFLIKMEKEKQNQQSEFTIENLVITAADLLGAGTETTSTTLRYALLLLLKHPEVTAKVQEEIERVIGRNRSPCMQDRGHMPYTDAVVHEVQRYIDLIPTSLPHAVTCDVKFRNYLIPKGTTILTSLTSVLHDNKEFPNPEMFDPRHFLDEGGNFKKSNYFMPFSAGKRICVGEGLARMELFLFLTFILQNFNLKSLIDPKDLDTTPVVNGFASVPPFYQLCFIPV
Settings: not given
The AC50 is the concentration giving half of the maximal activity seen. For the compound `CC(C)(C)N(NC(=O)c1ccccc1)C(=O)c1cccc(C(=O)N(NC(=O)c2ccccc2)C(C)(C)C)c1`, the AC50 entry was “inconclusive”.
Take `CN1CCN(c2ncncc2-c2ccoc2)CC1`: the AC50 entry was “inconclusive”.

Staying with this data set, now noted: read-out: AC50.
In the case of `c1cncc(CNc2nc(-c3cccnc3)nc3ccccc23)c1`, the AC50 is 39.8 µM (inconclusive).
Same read-out and setting: as for `COc1ccc(/C=N\c2c(O)ccc3ccccc23)cc1OC`, the figure is 5.01 µM (inconclusive).
With `COc1ccc(-c2nc3cnc(N4CCNCC4)nc3n(CCc3ccccc3)c2=O)cc1`, the AC50 was 39.8 µM (inconclusive).
`COc1cc(/C=C/C(=O)Nc2ccccc2C(F)(F)F)cc(OC)c1OC`: the AC50 is 17.8 µM (inconclusive).
As for `CCCc1nc2sc3ccccc3c(=O)c2c(=O)n1CCOC`, the AC50 was 39.8 µM (inconclusive).
Consider `O=C(Cn1nnc2ccccc21)N1CCCCC1`, for which the AC50 was 22.4 µM (inconclusive).
Regarding `Cc1ccc(-c2nc3ccccc3s2)cc1NC(=S)NC(=O)c1ccccc1`, the AC50 was 22.4 µM (inconclusive).
With `Cc1ccc2[nH]c(-c3ccc(NC(=O)Cc4cccs4)cc3)nc2c1`, the AC50 was 1 µM (inconclusive).
Consider `COCCn1c(=O)c(-c2ccc(OC)cc2)nc2cnc(OC)nc21`, for which the AC50 was 39.8 µM (inconclusive).
For `Cc1ccc(C(=O)CSc2nc(C)cc(=O)[nH]2)cc1`, the AC50 is 39.8 µM (inconclusive).

In a further data set the target is Cytochrome P450 2C9 (Homo sapiens, UniProt P11712).
Chain of Cytochrome P450 2C9 (P11712 whole entry): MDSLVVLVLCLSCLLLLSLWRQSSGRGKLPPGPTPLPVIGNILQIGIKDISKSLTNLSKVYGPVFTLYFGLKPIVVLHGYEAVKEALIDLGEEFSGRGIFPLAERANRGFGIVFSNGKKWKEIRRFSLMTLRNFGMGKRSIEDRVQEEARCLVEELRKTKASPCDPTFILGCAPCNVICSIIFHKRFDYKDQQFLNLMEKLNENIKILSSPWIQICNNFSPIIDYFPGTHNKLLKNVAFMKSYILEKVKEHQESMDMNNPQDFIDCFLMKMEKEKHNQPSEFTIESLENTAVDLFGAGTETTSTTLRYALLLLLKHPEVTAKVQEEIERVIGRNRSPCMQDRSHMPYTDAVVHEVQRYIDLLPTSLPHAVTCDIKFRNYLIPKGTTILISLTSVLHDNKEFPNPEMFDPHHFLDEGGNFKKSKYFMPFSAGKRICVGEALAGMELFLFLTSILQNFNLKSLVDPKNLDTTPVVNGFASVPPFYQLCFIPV
Settings: not given
Consider `O=C(O)C[S+]([O-])c1ccc2c3c(cccc13)C(=O)c1ccccc1-2` (stereo unspecified), for which the AC50 was 6.31 µM (inconclusive).
With `O=c1cnc2cnc(N3CCNCC3)nc2n1CCc1ccccc1`, the AC50 is 20 µM (inconclusive).
In the case of `O=C(C[C@@H](c1ccccc1)N1CCCCC1)c1ccccc1`, the AC50 was 3.16 µM (inconclusive).
For the compound `CCOC(=O)Nc1ccc2c(c1)OCO2`, the AC50 was 39.8 µM (inconclusive).
Consider `CCOC(=O)C1CCN(c2c(NCc3ccc(C(=O)NCCC(C)C)cc3)c(=O)c2=O)CC1`, for which the AC50 is 7.94 µM (inconclusive).
Take `O=C(Cn1nnc2ccccc21)N1CCCCC1`: the AC50 was 0.00562 µM (inconclusive).
As for `CCCCN(C(=O)NC(=O)Nc1ccccc1OCC)S(C)(=O)=O`, the AC50 was 8.91 µM (inconclusive).
As to `CC(C)C[C@H]1C(=O)N2CCC[C@@H]2[C@]2(O)O[C@](NC(=O)[C@@H]3C=C4c5cccc6[nH]c(Br)c(c56)C[C@H]4N(C)C3)(C(C)C)C(=O)N12`, the AC50 was 10 µM (inconclusive).
In the case of `O=C(c1ccncc1)N1CCC2(CC1)CN(c1ccncc1)C2`, the AC50 is 31.6 µM (inconclusive).
For the compound `CC(=O)OC[C@@H]1O[C@H](C/C=N\OC[C@@H](C)[C@H](OCc2ccccc2)C(C)C)C=C[C@@H]1OC(C)=O`, the AC50 was 6.31 µM (inconclusive).
Take `Cc1ccc2[nH]c(-c3ccc(NC(=O)Cc4cccs4)cc3)nc2c1`: the AC50 is 0.708 µM (inconclusive).
Consider `COCCn1c(=O)c(-c2ccc(OC)cc2)nc2cnc(OC)nc21`, for which the AC50 is 39.8 µM (inconclusive).
On to `COc1ccc(CNc2nc(-c3c(C)noc3C)nc3ccccc23)c(OC)c1`, for which the AC50 is 1 µM (inconclusive).
For the compound `Cc1ccc(C(=O)CSc2nc(C)cc(=O)[nH]2)cc1`, the AC50 was 0.0282 µM (inconclusive).
As to `CC(NC(=O)Cn1cnc([N+](=O)[O-])n1)c1ccccc1` (stereo unspecified), the AC50 is 35.5 µM (inconclusive).
As for `O=C(N/N=C(\c1ccccc1)c1cccnc1)C(O)(c1ccccc1)c1ccccc1`, the AC50 was 0.794 µM (inconclusive).
`CC(C)(C)NC(=O)C(=O)N/N=C/c1ccc(Br)cc1`: the AC50 is 15.8 µM (inconclusive).
Consider `Clc1ccc(/C=N/c2c(-c3ccc(Cl)cc3)nc3n2CCS3)cc1`, for which the AC50 was 10 µM (inconclusive).
In the case of `CN(C)CCCn1cc(C2=C(c3c[nH]c4ccccc34)C(=O)NC2=O)c2ccccc21` [GF-109203], the AC50 is 15.8 µM (inconclusive).
Regarding `CC(=O)NCCc1c(Cc2ccccc2)[nH]c2ccccc12` [LUZINDOLE], the AC50 is 15.8 µM (inconclusive).

The target of another data set is Cytochrome P450 2D6 (Homo sapiens, UniProt P10635).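 Further: CYP2D6 member of a cytochrome P450 panel assay.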
Chain of Cytochrome P450 2D6 (P10635 whole entry): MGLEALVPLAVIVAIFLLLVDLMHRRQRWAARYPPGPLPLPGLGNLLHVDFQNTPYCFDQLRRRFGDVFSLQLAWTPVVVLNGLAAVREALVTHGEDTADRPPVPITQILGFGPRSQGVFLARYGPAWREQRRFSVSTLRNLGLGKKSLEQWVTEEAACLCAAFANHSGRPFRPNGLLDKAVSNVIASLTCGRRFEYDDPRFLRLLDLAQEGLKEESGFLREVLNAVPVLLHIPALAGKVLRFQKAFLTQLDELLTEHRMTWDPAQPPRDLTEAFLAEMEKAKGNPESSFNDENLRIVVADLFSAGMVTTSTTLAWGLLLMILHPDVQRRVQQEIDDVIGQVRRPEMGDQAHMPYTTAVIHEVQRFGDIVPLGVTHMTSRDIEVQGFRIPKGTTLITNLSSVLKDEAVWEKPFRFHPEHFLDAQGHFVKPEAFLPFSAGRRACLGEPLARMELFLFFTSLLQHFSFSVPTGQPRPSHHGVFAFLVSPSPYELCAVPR
Settings: not given
Take `c1cncc(CNc2nc(-c3cccnc3)nc3ccccc23)c1`: the AC50 was 20 µM (inconclusive).
Same read-out and setting: as for `O=c1cnc2cnc(N3CCNCC3)nc2n1CCc1ccccc1`, the figure is 15.8 µM (inconclusive).
As to `COc1ccc(-c2nc3cnc(N4CCNCC4)nc3n(CCc3ccccc3)c2=O)cc1`, the AC50 was 15.8 µM (inconclusive).
`CCOC(=O)Nc1ccc2c(c1)OCO2`: the AC50 is 35.5 µM (inconclusive).
Same read-out and setting: as for `CCc1ccc(N/C(SCc2ccccc2C)=C(/C#N)C(=O)NCc2ccco2)cc1`, the figure is 15.8 µM (inconclusive).
Consider `COC(=O)N1CCC2(CCN(C(=O)Nc3ccc(OC)cc3)CC2)CC1`, for which the AC50 is 39.8 µM (inconclusive).
On to `CCOC(=O)C1CCN(c2c(NCc3ccc(C(=O)NCCC(C)C)cc3)c(=O)c2=O)CC1`, for which the AC50 was 0.398 µM (inconclusive).
For `COCCn1c(=O)c(-c2ccc(OC)cc2)nc2cnc(OC)nc21`, the AC50 is 25.1 µM (inconclusive).
Turning to `O=C(CSc1nnc(COc2ccccc2)n1-c1ccccc1)c1ccccc1`, the AC50 was 31.6 µM (inconclusive).
In the case of `CN1CCN(c2ncncc2-c2ccoc2)CC1`, the AC50 was 31.6 µM (inconclusive).
On to `O=C(c1csnn1)N1CCC2(CC1)CN(c1cccc(-c3ccccc3)c1)C2`, for which the AC50 is 10 µM (inconclusive).
As for `C[C@@H](C(=O)NCc1nc2ccccc2[nH]1)[C@@H]1C[C@@]1(C)[C@@H](NC(=O)OCc1ccccc1)c1ccccc1`, the AC50 was 15.8 µM (inconclusive).

For another data set, the target named is T1, Cytochrome P450 1A2 (Homo sapiens, UniProt P05177).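 Further: PubChem cytochrome P450 panel assay, CYP1A2 panel member.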
T1 sequence (P05177 whole entry): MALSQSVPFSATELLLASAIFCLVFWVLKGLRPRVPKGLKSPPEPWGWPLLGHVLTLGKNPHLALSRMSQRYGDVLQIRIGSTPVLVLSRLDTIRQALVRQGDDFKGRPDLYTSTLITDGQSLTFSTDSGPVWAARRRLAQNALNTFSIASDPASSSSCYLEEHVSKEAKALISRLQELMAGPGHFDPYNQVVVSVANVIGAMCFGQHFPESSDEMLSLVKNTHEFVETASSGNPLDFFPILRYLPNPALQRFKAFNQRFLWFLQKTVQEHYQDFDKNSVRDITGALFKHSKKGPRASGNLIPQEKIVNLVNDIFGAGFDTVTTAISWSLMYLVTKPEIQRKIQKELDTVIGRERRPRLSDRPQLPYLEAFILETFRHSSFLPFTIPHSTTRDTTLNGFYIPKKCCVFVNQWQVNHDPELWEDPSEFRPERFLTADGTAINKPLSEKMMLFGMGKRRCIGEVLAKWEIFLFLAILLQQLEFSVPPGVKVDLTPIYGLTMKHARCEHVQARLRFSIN
Settings: not given
As for `c1cncc(CNc2nc(-c3cccnc3)nc3ccccc23)c1`, the AC50 is 0.316 µM (active).
On the same count and under the same terms, as for `COc1ccc(-c2nc3cnc(N4CCNCC4)nc3n(CCc3ccccc3)c2=O)cc1`, the figure is 15.8 µM (inconclusive); as for `O=C(O)/C=C\C(=O)Nc1ccc2c(c1)-c1ccccc1C2`, 1 µM (inconclusive).
With `COc1cc(/C=C/C(=O)Nc2ccccc2C(F)(F)F)cc(OC)c1OC`, the AC50 was 28.2 µM (inconclusive).
Consider `CCc1ccc(N/C(SCc2ccccc2C)=C(/C#N)C(=O)NCc2ccco2)cc1`, for which the AC50 is 7.08 µM (inconclusive).
As for `COC(=O)N1CCC2(CCN(C(=O)Nc3ccc(OC)cc3)CC2)CC1`, the AC50 was 25.1 µM (inconclusive).
The same measure, in the same setting: as for `Cc1ccc(-c2nc3ccccc3s2)cc1NC(=S)NC(=O)c1ccccc1`, the figure is 15.8 µM (inconclusive).
As for `O=C(CSc1nnc(COc2ccccc2)n1-c1ccccc1)c1ccccc1`, the AC50 is 28.2 µM (inconclusive).
`COc1cccc(Nc2ncc3nc(CCc4ccccc4)c(=O)n(C4CC4)c3n2)c1`: the AC50 was 5.01 µM (inconclusive).
Consider `CN1CCN(c2ncncc2-c2ccoc2)CC1`, for which the AC50 is 31.6 µM (inconclusive).
Take `C[C@@H](C(=O)NCc1nc2ccccc2[nH]1)[C@@H]1C[C@@]1(C)[C@@H](NC(=O)OCc1ccccc1)c1ccccc1`: the AC50 was 12.6 µM (inconclusive).
Take `Cc1ccc(C(=O)CSc2nc(C)cc(=O)[nH]2)cc1`: the AC50 was 31.6 µM (inconclusive).
On the same count and under the same terms, as for `CC(C)(C)NC(=O)C(=O)N/N=C/c1ccc(Br)cc1`, the figure is 15.8 µM (inconclusive).

The target in a further data set is Cytochrome P450 3A4 (Homo sapiens, UniProt P08684).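 Further: CYP3A4 tested as one member of a cytochrome P450 panel screen.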
Chain of Cytochrome P450 3A4 (P08684 whole entry): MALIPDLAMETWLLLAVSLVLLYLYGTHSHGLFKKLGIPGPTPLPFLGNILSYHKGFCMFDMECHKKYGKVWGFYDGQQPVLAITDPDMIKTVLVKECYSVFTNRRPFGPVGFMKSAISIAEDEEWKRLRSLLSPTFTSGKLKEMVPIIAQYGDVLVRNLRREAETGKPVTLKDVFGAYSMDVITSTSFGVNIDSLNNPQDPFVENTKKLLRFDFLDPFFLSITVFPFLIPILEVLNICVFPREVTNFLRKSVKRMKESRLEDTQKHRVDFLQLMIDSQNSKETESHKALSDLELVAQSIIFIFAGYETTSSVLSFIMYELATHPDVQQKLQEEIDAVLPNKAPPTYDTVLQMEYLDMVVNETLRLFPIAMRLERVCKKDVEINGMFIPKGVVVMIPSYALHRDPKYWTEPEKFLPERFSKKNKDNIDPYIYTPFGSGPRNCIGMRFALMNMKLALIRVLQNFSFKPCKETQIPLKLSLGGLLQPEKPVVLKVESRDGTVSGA
Settings: not given
Turning to `O=C(O)C[S+]([O-])c1ccc2c3c(cccc13)C(=O)c1ccccc1-2` (stereo unspecified), the half-maximal activity concentration (AC50) is 3.98 µM (inconclusive).
Regarding `O=c1cnc2cnc(N3CCNCC3)nc2n1CCc1ccccc1`, the AC50 is 15.8 µM (inconclusive).
The same measure, in the same setting: as for `COc1ccc(/C=N\c2c(O)ccc3ccccc23)cc1OC`, the figure is 6.31 µM (inconclusive); as for `O=C(CC1CCCCC1)N1CCC(c2nc(-c3ccc(S(=O)(=O)N4CCCC4)cc3)no2)CC1`, 14.1 µM (inconclusive); as for `COc1ccc(-c2nc3cnc(N4CCNCC4)nc3n(CCc3ccccc3)c2=O)cc1`, 20 µM (inconclusive).
For `C[C@@H](C(=O)O)[C@@H]1C[C@@]1(C)[C@@H](NC(=O)OCc1ccccc1)c1ccccc1`, the AC50 was 15.8 µM (inconclusive).
On to `C[C@@H](C(=O)O)[C@H]1C[C@]1(C)[C@H](NC(=O)OCc1ccccc1)c1ccccc1`, for which the AC50 was 12.6 µM (inconclusive).
As to `O=C(O)/C=C\C(=O)Nc1ccc2c(c1)-c1ccccc1C2`, the AC50 is 3.98 µM (inconclusive).
`COc1cc(/C=C/C(=O)Nc2ccccc2C(F)(F)F)cc(OC)c1OC`: the AC50 was 14.1 µM (inconclusive).
Consider `CCOC(=O)C1CCN(c2c(NCc3ccc(C(=O)NCCC(C)C)cc3)c(=O)c2=O)CC1`, for which the AC50 was 7.94 µM (inconclusive).
`O=C(NNS(=O)(=O)c1ccc(Cl)cc1)c1cnn(-c2ccccc2)c1-n1cccc1`: the AC50 was 25.1 µM (inconclusive).
Take `Cn1cccc1C(=O)N1CCC[C@@]2(CCN(C(=O)Nc3cccc(C#N)c3)C2)C1`: the AC50 was 25.1 µM (inconclusive).
As for `CCCc1nc2sc3ccccc3c(=O)c2c(=O)n1CCOC`, the AC50 is 35.5 µM (inconclusive).
Still for that read-out and setting: as for `COc1cccc(-c2ccc3ncnc(NC4CCNCC4)c3c2)c1`, the figure is 31.6 µM (inconclusive); as for `Cc1ccc(-c2nc3ccccc3s2)cc1NC(=S)NC(=O)c1ccccc1`, 14.1 µM (inconclusive); as for `CC(C)(C)N(NC(=O)c1ccccc1)C(=O)c1cccc(C(=O)N(NC(=O)c2ccccc2)C(C)(C)C)c1`, 3.98 µM (inconclusive).
In the case of `COc1cccc(Nc2ncc3nc(CCc4ccccc4)c(=O)n(C4CC4)c3n2)c1`, the AC50 is 10 µM (inconclusive).
In the case of `O=C(c1csnn1)N1CCC2(CC1)CN(c1cccc(-c3ccccc3)c1)C2`, the AC50 is 39.8 µM (inconclusive).
In the case of `Cn1cc(/C=N/n2cnc3scc(-c4ccccc4)c3c2=O)c2ccccc21`, the AC50 is 3.98 µM (inconclusive).
